In brackets after ≈: the same amount, converted by molar mass. Like-named read-outs stand apart in the source and are kept apart here.
What was measured:
Format in all cases: in vivo
[1] = test system: C. elegans; test: Three day C. elegans well assay; conditions: for EC50: Caenorhabditis elegans
Experimental: Various compounds were tested for nematicidal activity against C. elegans using contact assays in wells. The assays were performed as described below. The test compounds were solubilized in DMSO at 10 mg/ml to create 100× stock solutions. A dilution series was created by diluting the stock solution with DMSO. For each well assay 4 ul of the appropriate dilution is added to a well of a test plate. A 400 ul aliquot of bacterial stock (in M9 buffer with ampicillin and nystatin) are added to each well of the test plate. Worms are added and the test plate placed on a rotary shaker and held at 20° C. Worms are examined and scored at 4 hrs, 24 hrs, 48 hrs and 72 hours. L1 worms and L4 worms were used in the assay. L1 worms are prepared by plating eggs on a plate without a bacterial feeding layer. The eggs hatch and arrest at the L1 stage. This L1 stage population is then used to create a stock for the experiments. To create an L4 stage stock a small number of worms are taken from an overgrown and starved plate of worms and seeded on a plate with a bacterial feeder layer. A 25 ul aliquot of worms is added to each well in the assay.

[2] = test system: Heterodera glycines (SCN); test: Seed treatment test of soybean cyst nematode on soybean; conditions: Heterodera glycines, 672 h, read-out: percent cyst reduction relative to control blank treatment
Experimental: For a given concentration the chemical is dissolved in 500 ul of acetone and one gram of cucumber seed (RKN test) or soybean seed (SCN test) is added (e.g., 20 mg active ingredient in 500 ul acetone plus 1 gram of seed). The seed solutions are agitated until all seeds were thoroughly covered with the chemical solution. The acetone is then allowed to evaporate by air drying the seeds. The seeds are planted in 2-inch pots containing sandy soil and then the pots are inoculated with 1000 Meloidogyne incognita (RKN) or 1000 Heterodera glycines (SCN) eggs per pot three days after planting. Plants are rated for galling 14 days after egg inoculation for RKN or 28 days after egg inoculation for SCN.

[3] = test system: Meloidogyne incognita; test: Summer field evaluation of pre-plant incorporated compounds on squash; conditions: 2 kg/ha PPI, squash
Experimental: Test plots of 33 cm diameter holes were bored 41 cm deep into clay soil and filled with a mixture of 80% sand and 20% silt loam soil. Technical compound for each treatment was dissolved in 50 ml acetone containing 250 ul of Triton X-100 surfactant. This solution was added to 450 ml water and poured onto 95 liters of sand/soil mixture in a rotating drum mixer. While continuing to rotate the mixing drum 66 grams of chopped, galled, tomato roots was added and thoroughly distributed. The treated soil was sufficient to fill the top 15 cm of each of the 6 replicate plots, thus simulating a PPI treatment. The plots were then watered lightly and a mixture of M. incognita eggs and larvae were injected 5 cm deep at 5 points within the plot (100k eggs/larvae in 10m1 per plot). Three-week old squash (cv. Liberator III) with 1 fully expanded true leaf was planted 4 days after soil treatment, one per plot.

[4] = test system: root knot nematode; test: Pre-plant incorporated (PPI) greenhouse test of root knot nematode on cucumber plants; conditions: 168 h, seven day pre-plant incorporated
Source text: The PPI test examines the effect of pre-incorporation of compounds in soil and longer aging to simulate in furrow methods of nematicide application in the field. The PPI test exposes compounds to a higher volume of soil and drying which can result in more severe soil binding. Compounds are also aged for longer periods which can lead to more extensive biotic and abiotic degradation further limiting activity.
The chemically treated soil (sandy soil mix) for all treatment days (e.g., 7 days, 14 days, 21 days) treatments is potted into their appropriate pots. On the same day the 7 day treatment pots are seeded. One week later eggs are applied and 14 days after egg application the test is harvested. The 14 day treatments are planted 7 days after the first planting. The 14 day planting and 7 day inoculation happen on the same day. One week later the 14 day treatments are inoculated with eggs. These are harvested 14 days after the inoculation. The 21 day treatments are planted 14 days after the first planting. The 14 day inoculation and 21 day planting are done on the same day. One week later the 21 day plants are inoculated with eggs. The 7 day treatment is harvested the same day as the 21 day inoculation. Fourteen days after inoculation the 21 day plants are harvested.
For each compound a stock is prepared using 4 mg material in 4 ml of acetone. The soil is mixed by placing 80 ml of field soil and 320 ml of sand in a plastic bag and mixing well. The formulation for treatment is done by adding 2.13 ml (8 kg/ha rate), 1.06 ml (4 kg/ha rate) or 0.53 ml (2 kg/ha rate) to a vial and raising it with 10 ml in 0.05% X100. Soil is then treated by adding the entire 10 ml to the 400 ml of mix in the bag. The treated soil is immediately mixed well in the sealed bag to distribute the compound evenly. Approximately 95 ml is used to fill each 2-inch square pot up to the top with some soil compression and flattening. For each compound and for the control treatments 4 pots are filled. All pots are watered until moist but with no run-out through the bottom.
The PPI test simulates 8, 4 and 2 kg/ha rates incorporated 15 cm deep in the field and is equivalent to the 2, 1 and 0.5 kg/ha drench application rates in the standard 2-inch pot cucumber greenhouse assay.

[5] = 48 h, L1 larvae, two days of exposure, read-out: EC50 L1 2D
[6] = 48 h, L4 larvae, two days of exposure, read-out: EC50 L4 2D
[7] = 72 h, L1 larvae, three days of exposure, read-out: EC50 L1 3D
[8] = 72 h, L4 larvae, three days, effects on the second generation larvae, read-out: EC50 L4 3D (F1)
[9] = 24 h, L1 larvae, one day of exposure, read-out: EC50 L1 1D
[10] = 24 h, L4 larvae, one day of exposure, read-out: EC50 L4 1D
[11] = L4 larvae, two days of exposure

Structure (SMILES)	EC50 [1, 5] [µg/mL]	EC50 [1, 6] [µg/mL]	EC50 [1, 7] [µg/mL]	EC50 [1, 8] [µg/mL]	EC50 L4 1D ([1]; L4 larvae, one day of exposure)	EC50 [1, 9] [µg/mL]	EC50 [1, 10] [µg/mL]	also measured
Fc1ccc(-c2noc(-c3cccs3)n2)c(F)c1 [compound 5847]	0.4 (≈ 1.51 µM)	1.6 (≈ 6.05 µM)	0.4 (≈ 1.51 µM)	1.6 (≈ 6.05 µM)	no			EC50 L1 1D ([1]; L1 larvae, one day of exposure): no; pest or weed control at 0.375 mg/g ([2]; 0.375 mg ai/gram seed, test b): 66%; pest or weed control at 1.5 mg/g ([2]; 1.5 mg ai/gram seed, test b): 80%
Clc1cc(-c2noc(-c3cccs3)n2)ccc1Br [compound 5820]	0.4 (≈ 1.17 µM)		0.4 (≈ 1.17 µM)	6.3 (≈ 18.4 µM)	no	0.4 (≈ 1.17 µM)		
Fc1ccc(-c2noc(-c3ccco3)n2)c(F)c1 [compound 5849]	0.4 (≈ 1.61 µM)		1.6 (≈ 6.45 µM)	6.3 (≈ 25.4 µM)	no	6.3 (≈ 25.4 µM)		
Clc1cc(-c2noc(-c3ccco3)n2)ccc1Br [compound 5821]	0.4 (≈ 1.23 µM)		0.4 (≈ 1.23 µM)	0.4 (≈ 1.23 µM)	no	0.4 (≈ 1.23 µM)		
Cc1cc(F)ccc1-c1noc(-c2ccco2)n1 [compound 5846]	0.4 (≈ 1.64 µM)	1.6 (≈ 6.55 µM)	0.4 (≈ 1.64 µM)	1.6 (≈ 6.55 µM)		1.6 (≈ 6.55 µM)	1.6 (≈ 6.55 µM)	
Brc1ccccc1-c1cnc(-c2cccs2)o1 [compound 5827]	1.6 (≈ 5.23 µM)	6.3 (≈ 20.6 µM)	1.6 (≈ 5.23 µM)	6.3 (≈ 20.6 µM)		6.3 (≈ 20.6 µM)	25 (≈ 81.7 µM)	
Clc1ccccc1-c1cnc(-c2ccco2)o1 [compound 5828]	1.6 (≈ 6.51 µM)		1.6 (≈ 6.51 µM)		no	1.6 (≈ 6.51 µM)		EC50 L4 3D ([1]; L4 larvae, three days of exposure): no; EC50 L4 2D [1, 11]: no
CCOP(=O)(SC(C)CC)N1CCSC1=O (centres unmarked) [fosthiazate]								0-3 vigor 16DAP [3]: 3.0; 0-3 vigor 21DAP [3]: 3.0; feeder root (3 = ave) 31DAP [3]: 2.3; gall % 31DAP [3]: 5%; root wgt (g) 31DAP [3]: 26.4 g; top wgt (lbs) 31DAP [3]: 2.01 lbs; total fruit (lbs) [3]: 1.25 lbs
Clc1ccc(-c2nsc(-c3cccs3)n2)cc1 [compound 5905]	0.4 (≈ 1.43 µM)		0.4 (≈ 1.43 µM)			0.4 (≈ 1.43 µM)		
Clc1ccccc1-c1cnc(-c2cccs2)o1 [compound 5826]	1.6 (≈ 6.11 µM)	6.3 (≈ 24.1 µM)	1.6 (≈ 6.11 µM)	6.3 (≈ 24.1 µM)		6.3 (≈ 24.1 µM)	6.3 (≈ 24.1 µM)	
Clc1ccc(-c2nsc(-c3ccco3)n2)cc1 [compound 5906]	0.4 (≈ 1.52 µM)		0.4 (≈ 1.52 µM)			0.4 (≈ 1.52 µM)		
Fc1cc(F)c(-c2noc(-c3cccs3)n2)c(F)c1 [compound 5878]								pest or weed control at 0.375 mg/g ([2]; 0.375 mg ai/gram seed, test b): 43%; pest or weed control at 1.5 mg/g ([2]; 1.5 mg ai/gram seed, test b): 77%
Cc1cc(Cl)ccc1-c1noc(-c2cccs2)n1 [compound 5822]	0.4 (≈ 1.45 µM)	1.6 (≈ 5.78 µM)	0.4 (≈ 1.45 µM)	1.6 (≈ 5.78 µM)	no	1.6 (≈ 5.78 µM)		
Fc1cc(Cl)ccc1-c1nsc(-c2ccco2)n1 [compound 5953]								pest or weed control at 0.375 mg/g ([2]; 0.375 mg ai/gram seed, test b): 44%; pest or weed control at 1.5 mg/g ([2]; 1.5 mg ai/gram seed, test b): 77%
CS/C(C)=N\OC(=O)N(C)SN(C)C(=O)O/N=C(\C)SC [Thiodicarb, reference compound]								pest or weed control at 0.375 mg/g [2]: 6%; pest or weed control at 1.5 mg/g [2]: -23%
FC(F)(F)c1ccc(-c2noc(-c3cccs3)n2)cc1 [compound 5213]								pest or weed control at 4000 g/ha ([4]; 4 kg/ha, read-out: percent control (galling reduction), 4 kg/ha rate): 85%; pest or weed control at 8000 g/ha ([4]; 8 ka/ha, read-out: percent control (galling reduction), 8 ka/ha rate): 98%
Fc1cc(Cl)ccc1-c1noc(-c2ccco2)n1 [compound 5861]	0.4 (≈ 1.51 µM)	1.6 (≈ 6.05 µM)	0.4 (≈ 1.51 µM)	1.6 (≈ 6.05 µM)		0.4 (≈ 1.51 µM)	1.6 (≈ 6.05 µM)	
Cc1cc(Br)ccc1-c1noc(-c2cccs2)n1 [compound 5824]	0.4 (≈ 1.25 µM)		0.4 (≈ 1.25 µM)	1.6 (≈ 4.98 µM)	no	1.6 (≈ 4.98 µM)		EC50 L4 2D [1, 11]: no
Cc1cc(F)ccc1-c1noc(-c2cccs2)n1 [compound 5845]	1.6 (≈ 6.15 µM)	25 (≈ 96 µM)	0.4 (≈ 1.54 µM)	25 (≈ 96 µM)	no			EC50 L1 1D ([1]; L1 larvae, one day of exposure): no
Fc1cc(Br)ccc1-c1noc(-c2cccs2)n1 [compound 5848]	0.4 (≈ 1.23 µM)	1.6 (≈ 4.92 µM)	0.4 (≈ 1.23 µM)	1.6 (≈ 4.92 µM)		1.6 (≈ 4.92 µM)	1.6 (≈ 4.92 µM)	
Fc1cc(Br)ccc1-c1noc(-c2ccco2)n1 [compound 5850]	0.4 (≈ 1.29 µM)	1.6 (≈ 5.18 µM)	0.4 (≈ 1.29 µM)	1.6 (≈ 5.18 µM)		1.6 (≈ 5.18 µM)	1.6 (≈ 5.18 µM)	
Fc1cc(Cl)ccc1-c1noc(-c2cccs2)n1 [compound 5860]	0.4 (≈ 1.42 µM)	1.6 (≈ 5.7 µM)	0.4 (≈ 1.42 µM)	1.6 (≈ 5.7 µM)		1.6 (≈ 5.7 µM)	1.6 (≈ 5.7 µM)	

Source: US20170367338A1, “COMPOSITIONS AND METHODS FOR IMPROVING AGRONOMIC CHARACTERISTICS OF PLANTS” (MONSANTO TECHNOLOGY LLC, priority 2014, published 2017)
